# Assay results as given in patent US20260297136A1, “PEPTIDES WITH LIPOLYTIC, ANTI-LIPOGENIC, ANTIFIBROTIC AND ANTI-INFLAMMATORY ACTIVITY” (FUNDACIÓ HOSPITAL UNIVERSITARI VALL D'HEBRON - INSTITUT DE …, priority 2023, published 2026).
# Assays:
# [1] = test system: HepG2 cells; assay: Hepatic lipogenesis in HepG2 cells induced by 30 mM fructose (ACC and PPARγ mRNA), Example 3; format: cell-based, human; settings: 5 days
# Experimental: FIG. 2. Human hepatoblastoma cell line HepG2 was treated with vehicle (DMSO) in the absence or presence of 30 mM fructose and Telmisartan (5 μg/ml), Semaglutide (10 nM) or GP6 (10 or 40 μg/ml) for 5 days. RNA was extracted and mRNA levels of Acetyl-CoA Carboxylase (ACC) (panel A) and Peroxisome proliferator-activated receptor gamma (PPARγ) (panel B) relative to 18S were measured by RTPCR.
# Cell culture reagents were from Life Technologies Inc (Invitrogen SA, Barcelona, Spain). HepG2 hepatoblastoma cells (cat. no. HB-8065; ATCC, LGC Standards SLU, Barcelona, Spain) were maintained in Dulbecco's modified Eagle medium (DMEM) supplemented with 10% fetal bovine serum and antibiotics. HepG2 cells were cultured for 5 day in the absence or presence of 30 mM fructose. Cells cultured in 30 mM fructose were daily treated with vehicle, Telmisartan, Semaglutide or GP6. LX-2 human hepatic stellate cells (SCC064) were maintained in DMEM supplemented with 2% fetal bovine serum and antibiotics. For experiments, LX-2 were cultured for 24 h in DMEM 0.2% FBS and treated for 24 h with vehicle or TGFβ1 (20 ng/ml) in the absence or presence of GP6 (10 or 40 μg/ml). At the end of the experiment's cells were harvested for gene expression analysis.
# Total RNA was extracted from HepG2 and LX-2 cells using TRIzol reagent (Invitrogen SA). Reverse transcription was performed at 42° C. for 50 minutes using […] of total RNA, 200 U of Superscript II, and an oligo-dT primer and reagents provided by Invitrogen. […] Results were analyzed using the 7000 Sequence Detection System program (Applied Biosystems, Thermo Fisher Scientific, Barcelona, Spain) (Sex Hormone-Binding Globulin Reduction in Metabolic Disorders May Play a Role in NAFLD Development.Saez-Lopez C, Barbosa-Desongles A, Hernandez C, Dyer R A, Innis S M, Simo R, Selva D M. Endocrinology. 2017 Mar. 1; 158(3):545-559. doi: 10.1210/en.2016-1668).
# [2] = test system: HepG2 cells; assay: Hepatic lipogenic key enzymes in HepG2 cells in the presence of 30 mM fructose (2 h), Example 7; format: cell-based, human; settings: 40 μg/ml
# Experimental: FIG. 34. Effects of different peptides and SHBG in reducing hepatic lipogenic key enzymes in the presence of 30 mM fructose. Each bar within each group represents mRNA levels of a key hepatic lipogenic enzyme, from left to right: Acetyl-CoA Carboxylase (ACC), ATP Citrate Lyase (ACLY) and Fatty Acid Synthase (FAS), and a key transcription factor regulating several lipogenic enzymes such as PPARγ (PPARγ).
# Cell culture reagents were from Life Technologies Inc (Invitrogen SA, Barcelona, Spain). HepG2 hepatoblastoma cells (cat. no. HB-8065; ATCC, LGC Standards SLU, Barcelona, Spain) were maintained in Dulbecco's modified Eagle medium (DMEM) supplemented with 10% fetal bovine serum and antibiotics.
# • HepG2 cells were cultured for 5 day in the absence or presence of 30 mM fructose. Cells cultured in 30 mM fructose were daily treated with vehicle, Telmisartan, Semaglutide or EDL6D. • HepG2 cells were cultured for 24 h in the absence or presence of GP6 (40 μg/ml), GP10 (40 μg/ml), GP11 (40 μg/ml), GP12 (40 μg/ml), GP13 (40 μg/ml) or SHBG (20 nM). • HepG2 cells were cultured in the absence or presence of 30 mM fructose and treated for 2 h with vehicle or GP4 (40 μg/ml), GP6 (40 μg/ml), GP7 (40 μg/ml), GP8 (40 μg/ml), GP9 (40 μg/ml), GP10 (40 μg/ml), GP11 (40 μg/ml), GP12 (40 μg/ml), GP13 (40 μg/ml) or SHBG (20 nM).
# Total RNA was extracted from HepG2 and LX-2 cells using TRIzol reagent (Invitrogen SA). Reverse transcription was performed at 42° C. for 50 minutes using […] of total RNA, 200 U of Superscript II, and an oligo-dT primer and reagents provided by Invitrogen. An aliquot of the reverse transcription product was amplified in a […] reaction using SYBRGreen (Invitrogen SA) with appropriate oligonucleotide primer pairs corresponding to human SHBG, ACC, FAS, ACLY, PPARG, and 18S and mouse ACC, FAS, ACLY, PPARG, Col1A1 and 18S. Results were analyzed using the 7000 Sequence Detection System program (Applied Biosystems, Thermo Fisher Scientific, Barcelona, Spain) (Shez-Lopez et al Endocrinology 2017).
smiles,measurement,setting,value
CC[C@@H](C)[C@@H](NC(=O)[C@H](NC(=O)CNC(=O)[C@@H](CCC(=O)O)NC(=O)[C@H]1CCCN1C(=O)[C@@H](CC(=O)O)NC(=O)[C@@H](Cc1c[nH]c2ccccc12)NC(=O)[C@H](NC(=O)[C@@H](CCCNC(=N)N)NC(=O)[C@H](NC(=O)[C@@H](CCC(=O)O)NC(=O)[C@@H](Cc1ccccc1)NC(=O)[C@@H](CO)NC(=O)[C@@H](CO)NC(=O)[C@@H](CO)NC(=O)[C@H](NC(=O)[C@@H](CCCCN)NC(=O)[C@H](N)[C@H](C)O)[C@H](C)O)C(C)C)[C@H](C)O)C(C)C)C(=O)N[C@H](Cc1ccccc1)C(=O)N[C@H](Cc1ccc(O)cc1)C(=O)O [GP6],effectiveness in reducing the induced expression of ACC and PPARγ versus positive controls,"[1]; GP6 10 or 40 μg/ml versus Telmisartan 5 μg/ml and Semaglutide 10 nM, 30 mM fructose",significantly much more effective than Telmisartan and Semaglutide
same,ACC mRNA levels induced by 30 mM fructose,"[1]; GP6 10 or 40 μg/ml, daily",reducing mRNA levels
same,PPARγ mRNA levels induced by 30 mM fructose,"[1]; GP6 10 or 40 μg/ml, daily",reducing mRNA levels
same,fructose-induced expression of ACC,[2],able to reduce
same,fructose-induced expression of ACLY,[2],able to reduce
same,fructose-induced expression of FAS,[2],able to reduce
same,fructose-induced expression of PPARγ,[2],able to reduce
